In patent US7579356B2, “Thia-tetraazaacenaphthylene kinase inhibitors” (Janssen Pharmaceutica NV, priority 2005, dated 2009):
Values joined by “and” are separate entries in the source; they are usually repeats but may differ in a detail not shown here. Identical values can stand only once.

Legend:
EGFR = molecular target: T1, EGFR (Homo sapiens, UniProt P00533); experiment: EGFR Kinase Assay; type: biochemical; conditions: GST-EGFR, ATP 5 μM
T1 construct: The intracellular portion of EGFR started at nucleotide 2189 (corresponding to amino acid 667) and ended at the termination codon; made in house; host or cells: Sf9 insect cells (baculovirus)
How it was run: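 GST-fused human EGFR intracellular domain (from aa 667), Sf9-expressed, phosphorylated biotinylated polyGluTyr with 5 μM ATP plus γ-33P ATP in Tris pH 8.0, MgCl2, vanadate, 1 mM DTT, 1 h at 30 °C. Streptavidin Flashplate scintillation read; triplicate 16-point half-log series from 200 uM; IC50 from % inhibition vs log concentration, else % inhibition at 2 μM.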

BT474 breast carcinoma = experiment: Cell Proliferation Inhibition Assay, BT474 (14C-thymidine); type: cell-based; conditions: Homo sapiens, BT-474, C14 method
Excerpt: (§1) Cell Proliferation Inhibition Assay
(§2) The ability of a test compound to inhibit unregulated cell proliferation may be determined by measuring incorporation of ^14C-labelled thymidine into newly synthesized DNA within cell lines derived from carcinomas originating from several tissues. Accordingly, the effect of a test compound on proliferation of cells with a variety of phenotypes may be determined.
(§3) Carcinoma cell lines used include the HeLa cervical adenocarcinoma from the American Type Culture Collection (ATCC Cat. #CCL2), A375 malignant melanoma (ATCC Cat. #CRL-1619), HCT-116 colon carcinoma (ATCC Cat. #CCL-247), SKBR3 breast carcinoma (ATCC Cat. #HTB-30) and BT474 breast carcinoma (ATCC Cat. #HTB-20).
(§4) The carcinoma cells were trypsinized and counted. The cells (3000-8000 count) were added to each well of a 96-well CytoStar tissue culture treated scintillating microplate (Amersham #RPNQ0160) in complete medium (100 μL) and the plate was then incubated in complete medium for 24 hrs at 37° C. in an inert atmosphere containing 5% CO2.
(§5) Test compound (1 μL) in 100% DMSO was added to the plate test-wells with DMSO only added to control-wells. The plate was incubated in complete medium for a second 24 hr period at 37° C. in an atmosphere containing 5% CO2.
(§6) An aliquot of a solution of Methyl ^14C-thymidine (56 mC/mmol) (NEN #NEC568 or AMersham #CFA532) and complete medium (20 uL to provide 0.2 μCl/well) was then added to each well and the plate was incubated for a third 24 hr period at 37° C. in an atmosphere containing 5% CO2.
(§7) The plate contents were then discarded, the plate washed twice with PBS (200 μL) and then PBS (200 μL) was added to each well. The plate was sealed and the degree of methyl ^14C-thymidine incorporation was quantified on a Packard Top Count.
(§8) Cell proliferation of the Hela cell line was measured using the ATP-Lite method as described in the ATP Lite Kit (Perkin-Elmer Kit Number 6106941) or the C^14 method as described above. Cell proliferation of the other cell lines was measured using the C^14 method.

SKBR3 breast carcinoma = experiment: Cell Proliferation Inhibition Assay, SKBR3 (14C-thymidine); type: cell-based; conditions: Homo sapiens, SK-BR-3, C14 method
Excerpt: as §1, §2, §3, §4, §5, §6, §7, §8

[1] = test system: HeLa cervical adenocarcinoma; experiment: Cell Proliferation Inhibition Assay, Hela (ATP Lite); type: cell-based; conditions: Homo sapiens, ATP-Lite method
Excerpt: as §1, §2, §3, §4, §5, §8

HER-2 = molecular target: T2, HER-2 (Homo sapiens, UniProt P04626); experiment: HER-2 Kinase Assay; type: biochemical; conditions: for inhibition at 1 µM: test concentration of 1 μM; for IC50: value in parentheses
T2 construct: His6 with thrombin site (N); purchased Proqinase (Freiburg, Germany)
How it was run: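 GST/HIS6-tagged HER-2 aa 679–1255 kinase with biotinylated polyGluTyr (1.5 ng/μL), 1 μM ATP plus γ-33P-ATP, Mg2+/Mn2+, DTT, Hepes pH 7.5; 1 h at 30 °C. Substrate phosphorylation captured on streptavidin scintillation plates after EDTA/PBS washes; values are % inhibition at 1 μM or IC50.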

HER-4 = molecular target: T3, HER-4 (Homo sapiens, UniProt Q15303); experiment: HER-4 Kinase Assay; type: biochemical
T3 construct: His6 with thrombin site (N); purchased Proqinase (Freiburg, Germany)
Method: The HER-4 kinase used was purified at Proqinase (Freiburg, Germany) from a construct that consisted of a fusion of GST (Glutathione-S-Transferase), HIS6-Thrombin and the nucleotides encoding amino acids 676 to 1307 of HER-4 (Accession NM 005235).
A mixture of a 10× kinase reaction buffer (600 mM Hepes at pH 7.5, 30 mM Magnesium Chloride, 0.03 mM Sodium Vanadate and 500 μg/mL PEG 20,000), DTT (1.2 mM final from a 10 mM) stock), ATP (1 μM from a 10 mM stock), biotinylated polyGluTyr (1.5 ng/μL final from stock of 1 μg/μL) prepared by Upstate Biotechnologies, Lake Placid, N.Y.), Manganese Chloride (3 mM final from a 1 M stock), γ-^33P-ATP (10 μCl/mL stock) and water (70 μL/well) was added to each well of a Streptavidin Flashplate (Cat. # SMP103, NEN, Boston, Mass.).
Test compound stock (1 μL) was added to the appropriate wells. Diluted GST HER-4 kinase (6.7 ng/μL diluted into 50 mM Tris-HCl at pH 8.0 and 0.1% bovine serum albumin) (30 μL) was added (total volume of 200 ng/well) to initiate the reactions.
The reaction plates were incubated at 30° C. for 1 hr. The reaction was terminated by aspirating the reaction mixture from the plate wells and washing the wells three times with a 1×PBS stop buffer (300 μL) and 100 mM EDTA. After the final wash, the same stop buffer (200 μL) was again added to the wells. The plates were then sealed and read on the TopCount scintillation counter.
For a series of test concentrations, the IC50 was derived by graphing percent inhibition against the log of the concentrations tested for a given compound.

N87 cells = experiment: In Vivo Models - Inhibition of Tumor Growth, N87; conditions: Mus musculus, po, 720 h, oral daily for 30 days, athymic mice, read-out: percent inhibition N87
Method: (§9) In Vivo Models—Inhibition of Tumor Growth
(§10) The ability of test compounds to inhibit unregulated growth of human tumor cells in vivo was evaluated by implanting human tumor cells into the hindflank of athymic mice, administering a test compound and then quantifying any change in tumor size.
(§11) Human epidermoid A431 carcinoma, N87 cells and BT474 cells were implanted subcutaneously into the hindflank of female athymic mice (Charles River) and allowed to grow for 6-10 days. After a measurable tumor was established (as determined by baseline caliper measurement), the animal was administered an oral dose of the test compound daily for a period of 30 days. Tumor size was measured every five days and the degree of inhibition was determined by comparing drug-treated animals to vehicle-treated animals.
(§12) Variations of this method are intended to include intraperitoneal injection or intravenous infusion as the route of administration and administration of the test compound either alone or in a combination therapy.
(§13) The inhibition of tumor growth values are shown in Table 8 at various test concentrations, as indicated. For compounds with multiple values at one test concentration, each value represents a separate assay result.

[2] = test system: Human epidermoid A431 carcinoma; experiment: In Vivo Models - Inhibition of Tumor Growth, A431; conditions: oral daily for 30 days, athymic mice
Method: as §9, §10, §11, §12, §13

BT474 cells = experiment: In Vivo Models - Inhibition of Tumor Growth, BT474; conditions: 100 mg/kg, oral daily for 30 days, athymic mice
Method: as §9, §10, §11, §12, §13

T3 sequence (Q15303 676-1307): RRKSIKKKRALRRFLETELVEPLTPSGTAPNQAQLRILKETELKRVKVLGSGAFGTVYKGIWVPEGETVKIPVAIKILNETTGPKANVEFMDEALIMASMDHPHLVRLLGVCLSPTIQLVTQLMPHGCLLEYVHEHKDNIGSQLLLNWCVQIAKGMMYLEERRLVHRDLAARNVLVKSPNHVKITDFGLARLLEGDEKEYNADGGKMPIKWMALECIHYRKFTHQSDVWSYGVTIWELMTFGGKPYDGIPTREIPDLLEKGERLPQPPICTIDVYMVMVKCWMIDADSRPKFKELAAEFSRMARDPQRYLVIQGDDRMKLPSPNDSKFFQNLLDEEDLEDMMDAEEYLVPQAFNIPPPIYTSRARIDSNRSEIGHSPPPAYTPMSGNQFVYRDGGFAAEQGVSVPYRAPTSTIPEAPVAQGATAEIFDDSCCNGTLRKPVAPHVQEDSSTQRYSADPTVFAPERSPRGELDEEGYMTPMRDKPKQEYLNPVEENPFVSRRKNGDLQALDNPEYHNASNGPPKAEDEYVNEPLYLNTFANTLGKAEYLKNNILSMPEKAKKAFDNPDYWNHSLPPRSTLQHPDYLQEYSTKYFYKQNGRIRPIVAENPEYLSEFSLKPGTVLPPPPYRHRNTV
T1 sequence (P00533 669-1210 limits assumed): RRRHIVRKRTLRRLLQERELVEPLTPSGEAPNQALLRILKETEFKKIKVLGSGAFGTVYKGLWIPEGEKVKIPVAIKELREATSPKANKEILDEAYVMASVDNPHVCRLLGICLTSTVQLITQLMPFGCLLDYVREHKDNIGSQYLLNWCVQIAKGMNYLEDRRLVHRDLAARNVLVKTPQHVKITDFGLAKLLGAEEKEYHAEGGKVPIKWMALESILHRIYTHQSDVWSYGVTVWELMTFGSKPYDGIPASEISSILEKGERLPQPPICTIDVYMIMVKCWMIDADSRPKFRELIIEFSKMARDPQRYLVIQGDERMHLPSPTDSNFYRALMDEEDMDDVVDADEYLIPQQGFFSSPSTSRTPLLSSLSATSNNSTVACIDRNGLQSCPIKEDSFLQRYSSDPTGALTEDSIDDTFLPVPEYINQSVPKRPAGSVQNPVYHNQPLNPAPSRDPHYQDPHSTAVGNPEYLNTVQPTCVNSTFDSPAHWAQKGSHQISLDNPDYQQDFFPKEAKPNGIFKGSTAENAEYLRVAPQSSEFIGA
T2 sequence (P04626 679-1255): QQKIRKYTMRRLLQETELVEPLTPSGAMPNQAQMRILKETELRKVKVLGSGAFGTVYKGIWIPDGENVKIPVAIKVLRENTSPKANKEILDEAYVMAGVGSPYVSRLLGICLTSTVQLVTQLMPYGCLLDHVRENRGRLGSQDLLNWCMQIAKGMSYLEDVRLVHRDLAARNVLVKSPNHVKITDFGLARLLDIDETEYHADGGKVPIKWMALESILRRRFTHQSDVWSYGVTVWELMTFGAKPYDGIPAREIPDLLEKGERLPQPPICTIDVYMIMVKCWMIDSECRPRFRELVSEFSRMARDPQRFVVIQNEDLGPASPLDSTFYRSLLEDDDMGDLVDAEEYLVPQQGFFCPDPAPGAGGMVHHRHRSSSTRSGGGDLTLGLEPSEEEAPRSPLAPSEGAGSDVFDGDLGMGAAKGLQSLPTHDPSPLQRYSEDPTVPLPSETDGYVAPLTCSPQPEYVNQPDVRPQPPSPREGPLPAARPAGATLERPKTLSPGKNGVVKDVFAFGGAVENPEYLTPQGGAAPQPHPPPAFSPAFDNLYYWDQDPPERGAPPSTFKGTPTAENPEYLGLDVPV

SMILES | IC50 (EGFR) [nM] | IC50 (HER-2) [nM] | IC50 (HER-4) [nM] | inhibition in vivo at 100 mg/kg (N87 cells) [%] | further results
COc1cc(NC(=O)c2sc3ncnc4c3c2NC(=O)N4c2ccc(Oc3ccccc3)cc2)ccc1CN1CCOCC1 [Cpd 176, 4-oxo-5-(4-phenoxy-phenyl)-4,5-dihydro-3H-1-thia-3,5,6,8-tetraaza-acenaphthylene-2-carboxylic acid (3-methoxy-4-morpholin-4-ylmethyl-phenyl)-amide] | 22 | 12 | 47 | – | –
O=C(Nc1ccc(CN2CCC(O)CC2)cc1)c1sc2ncnc3c2c1NC(=O)N3c1ccc(Oc2ccccc2)cc1 [Cpd 233, 4-oxo-5-(4-phenoxy-phenyl)-4,5-dihydro-3H-1-thia-3,5,6,8-tetraaza-acenaphthylene-2-carboxylic acid [4-(4-hydroxy-piperidin-1-ylmethyl)-phenyl]-amide] | 17 | 9 | 9 | 38.3 | percent inhibition A431 ([2]; 100 mg/kg): 2.2%
O=C(Nc1ccc(CN2CCCC(F)C2)cc1)c1sc2ncnc3c2c1NC(=O)N3c1ccc(Oc2ccccc2)cc1 (centres unmarked) [Cpd 234, 4-oxo-5-(4-phenoxy-phenyl)-4,5-dihydro-3H-1-thia-3,5,6,8-tetraaza-acenaphthylene-2-carboxylic acid [4-(3-fluoro-piperidin-1-ylmethyl)-phenyl]-amide] | 52 | 34 | 59 | – | –
O=C(Nc1ccc(CN2CCC(F)CC2)cc1)c1sc2ncnc3c2c1NC(=O)N3c1ccc(Oc2ccccc2)cc1 [Cpd 250, 4-oxo-5-(4-phenoxy-phenyl)-4,5-dihydro-3H-1-thia-3,5,6,8-tetraaza-acenaphthylene-2-carboxylic acid [4-(4-fluoro-piperidin-1-ylmethyl)-phenyl]-amide] | 37 | 26 | 33 | 68.9 | –
COC1CCN(Cc2ccc(NC(=O)c3sc4ncnc5c4c3NC(=O)N5c3ccc(Oc4ccccc4)cc3)cc2)CC1 [Cpd 261, 4-oxo-5-(4-phenoxy-phenyl)-4,5-dihydro-3H-1-thia-3,5,6,8-tetraaza-acenaphthylene-2-carboxylic acid [4-(4-methoxy-piperidin-1-ylmethyl)-phenyl]-amide] | 18 | 11 | – | 75.4 | percent inhibition BT474 (BT474 cells): 98%; inhibition in vivo at 25 mg/kg (N87 cells; 25 mg/kg): 69.6%; inhibition in vivo at 50 mg/kg (N87 cells; 50 mg/kg): 71%; percent inhibition A431 ([2]; 10 mg/kg): 44%; percent inhibition A431 ([2]; 30 mg/kg): 54.1%; percent inhibition A431 ([2]; 100 mg/kg): 86.1% and 80.1%

Further lines, with some results ahead:

IC50 (EGFR) [nM] | IC50 (HER-2) [nM] | IC50 (HER-4) [nM] | SMILES | inhibition in vivo at 100 mg/kg (N87 cells) [%] | further results
9 | – | – | O=C(Nc1ccc(CN2CCCCC2)cc1)c1sc2ncnc3c2c1NC(=O)N3c1ccc(F)c(Cl)c1 [Cpd 3, 5-(3-chloro-4-fluoro-phenyl)-4-oxo-4,5-dihydro-3H-1-thia-3,5,6,8-tetraaza-acenaphthylene-2-carboxylic acid (4-piperidin-1-ylmethyl-phenyl)-amide] | – | IC50 (BT474 breast carcinoma): 9580 nM; IC50 (SKBR3 breast carcinoma): 9720 nM; IC50 [1]: 42600 nM; inhibition at 1 µM (HER-2): 59%
104 | – | – | COc1cc(NC(=O)c2sc3ncnc4c3c2NC(=O)N4c2cccc(Br)c2)ccc1OCCN1CCCCC1 [Cpd 63, 5-(3-bromo-phenyl)-4-oxo-4,5-dihydro-3H-1-thia-3,5,6,8-tetraaza-acenaphthylene-2-carboxylic acid [3-methoxy-4-(2-piperidin-1-yl-ethoxy)-phenyl]-amide] | – | IC50 (BT474 breast carcinoma): ≥ 10000 nM; IC50 (SKBR3 breast carcinoma): 26900 nM; IC50 [1]: 59000 nM; inhibition at 1 µM (HER-2): 45%
24 | 48 | 227 | O=C(Nc1ccc(CN2CCOCC2)cc1)c1sc2ncnc3c2c1NC(=O)N3c1ccc(OCc2ccco2)c(Cl)c1 [Cpd 245, 5-[3-chloro-4-(furan-2-ylmethoxy)-phenyl]-4-oxo-4,5-dihydro-3H-1-thia-3,5,6,8-tetraaza-acenaphthylene-2-carboxylic acid (4-morpholin-4-ylmethyl-phenyl)-amide] | 48.7 | –
